Patent publication US12201608B2, “Methods for treating Parkinson's disease by administering resiniferatoxin” (Sorrento Therapeutics, Inc., priority 2018, dated 2025)

Test: Adverse effects and mortality monitoring in the main AAV-A53T study
Assay type: in vivo, C57Bl/6J male mice
Method: For this study, a total of 110 male C57Bl/6J mice two months of age were infused with either AAV-A53T (90 mice) or AAV-Null (20 mice) into substantia nigra unilaterally to induce PD-like pathology or to serve as sham controls, respectively. Mice infused with AAV-Null (empty) vector (“sham-infused” mice) were used in order to control for the effect of the viral infusion. After 7 or 14 days of AAV-A53T mediated disease model induction, the mice were treated with RTX (0.04 μg or 0.125 μg) (5 μL volume, prepared from a 25 μg/ml RTX solution containing Polysorbate 80 at 0.03% w/v, dextrose at 0.05% w/v, Phosphate Buffer at 30 mM, and NaCl 0.54% w/v, pH 7.2, and diluted in saline as needed) by single intrathecal infusion at lumbar spinal cord area. One AAV-Null and AAV-A53T infused group per each time point were treated with vehicle instead of RTX.
The mice were then treated with RTX or vehicle by intrathecal infusion 7 or 14 days after AAV infusion. […]
Animals were monitored daily by laboratory personnel. […]

Which results are given for C=C(C)[C@]12C[C@@H](C)[C@@]34O[C@](Cc5ccccc5)(O[C@@H]1[C@@H]3C=C(COC(=O)Cc1ccc(O)c(OC)c1)C[C@]1(O)C(=O)C(C)=C[C@@H]41)O2 [RTX, Resiniferatoxin]?
mortalities, distribution between groups (6 mice out of 110 lost including vehicle-treated mice, attributed to surgical procedure and anesthesia): evenly spread between the vehicle and both RTX low and high dose groups; adverse effects of intrathecal RTX administration (low or high dose (0.04 μg or 0.125 μg), D7 or D14): No significant adverse effects
